Assay results published in US20260376293A1, “METHODS FOR STUDYING GPR158 PHARMACOLOGY AND IDENTIFICATION OF ITS LIGANDS” (UNIVERSITY OF FLORIDA RESEARCH FOUNDATION, INCORPORATED, priority 2022, published 2026).

Target: T1, GPR158 (Homo sapiens, UniProt Q5T848)
T1 sequence (Q5T848 24-1215): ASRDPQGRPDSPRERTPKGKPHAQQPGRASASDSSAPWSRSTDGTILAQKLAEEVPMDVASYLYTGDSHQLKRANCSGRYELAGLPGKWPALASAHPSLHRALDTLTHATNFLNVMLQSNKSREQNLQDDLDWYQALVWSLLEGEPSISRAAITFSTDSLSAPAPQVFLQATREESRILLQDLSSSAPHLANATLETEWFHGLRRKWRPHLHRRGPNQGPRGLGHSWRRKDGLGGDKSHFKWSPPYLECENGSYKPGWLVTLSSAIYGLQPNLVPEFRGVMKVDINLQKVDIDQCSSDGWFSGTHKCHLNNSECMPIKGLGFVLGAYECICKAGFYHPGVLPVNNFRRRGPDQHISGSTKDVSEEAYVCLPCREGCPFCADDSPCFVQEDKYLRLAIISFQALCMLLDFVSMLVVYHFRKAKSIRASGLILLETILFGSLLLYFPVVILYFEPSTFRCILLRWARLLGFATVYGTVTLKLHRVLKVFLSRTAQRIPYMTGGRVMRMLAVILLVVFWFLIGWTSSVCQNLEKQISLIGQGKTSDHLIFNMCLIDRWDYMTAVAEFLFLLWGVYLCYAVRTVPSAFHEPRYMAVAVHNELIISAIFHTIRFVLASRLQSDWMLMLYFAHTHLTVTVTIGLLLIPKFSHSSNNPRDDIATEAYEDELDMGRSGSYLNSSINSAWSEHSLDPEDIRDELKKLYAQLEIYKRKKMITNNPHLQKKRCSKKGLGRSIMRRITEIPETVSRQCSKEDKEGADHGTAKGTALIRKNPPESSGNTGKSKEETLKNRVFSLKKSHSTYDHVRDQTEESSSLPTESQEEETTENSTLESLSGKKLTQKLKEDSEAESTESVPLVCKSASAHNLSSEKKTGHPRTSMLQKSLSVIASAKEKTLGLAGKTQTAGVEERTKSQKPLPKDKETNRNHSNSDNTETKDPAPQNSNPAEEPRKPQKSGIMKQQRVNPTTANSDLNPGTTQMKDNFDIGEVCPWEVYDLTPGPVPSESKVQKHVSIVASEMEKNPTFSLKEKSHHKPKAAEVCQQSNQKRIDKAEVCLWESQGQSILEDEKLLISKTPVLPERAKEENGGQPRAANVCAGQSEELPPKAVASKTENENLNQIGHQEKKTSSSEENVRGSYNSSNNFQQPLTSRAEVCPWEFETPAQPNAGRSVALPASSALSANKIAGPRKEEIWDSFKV
Assay: Radioligand competition binding assay vs ^3H-glycine
Design: expressed in transfected cells; host or cells: HEK293FT
Conditions: for IC50: membranes from HEK293 cells expressing GPR158, 4 experiments, mean±s.e.m., read-out: IC50 (displacement of ^3H-glycine)
Description: FIG. 8. Radioligand competition binding assay comparing binding of glycine and taurine to GPR158 Membranes from HEK293 cells expressing GPR158 were first incubated with ^3H-Glycine setting binding to 100% and then exposed to increasing concentrations of cold glycine (open circles) or cold taurine (circles with angled-line fill). Data shown are from 4 independent experiments, mean±s.e.m.
Next, the inventors performed radioligand binding assays examining binding of [^3H]-labeled glycine to HEK293 cells expressing GPR158 (FIG. 7A). […] The inventors have then isolated cellular membranes and conducted classical radioligand titration experiments (FIG. 9D). The inventors detected saturable [^3H]-glycine binding to membranes containing GPR158 is substantial excess over linear non-specific binding to membranes devoid of GPR158 (FIG. 9E). Scatchard analysis (FIG. 9F) estimated Kd of GPR158 for glycine to be ~3 μM. The inventors further performed binding competition experiments directly comparing the ability of glycine and taurine to displace [^3H]-labeled glycine bound to GPR158 (FIG. 8).
The functional data shown represent the average±SEM of 3-9 individual experiments each performed in triplicate or indicated in each figure and expressed as means±standard error means (s.e.m). For cAMP assays, cells transfected with empty vector were used as control and one-way ANOVA test was performed. For the GAP assay, cells with the same transfection conditions were compared on their treatment and two-way ANOVA test was performed. The non-linear regression curve was used to fit on the dose response curve giving the IC50 value. For the flow cytometry and radioligand binding assays cells transfected with empty vector were used as control and two-way ANOVA test was performed. For the radioligand competition assay, dissociation-One phase exponential decay was used to fit on data and give the Ki value. For the ITC dose response curve, the non-linear regression curve was used to fit on the curve. […] For the electrophysiology experiments changes was assessed in nonparametric t-test; Wilcoxon test. […]

Row | SMILES | affinity of taurine relative to glycine (competition binding IC50 comparison) | IC50 [µM]
1 | NCCS(=O)(=O)O [taurine, 2-aminoethanesulfonic acid] | two fold lower affinity | ~6
2 | NCC(=O)O [glycine] | – | ~3
